Data on two compounds can be found in ChEMBL document CHEMBL4507288 (2021).

SMILES strings stand for the structures. pKi: −log10 of the molar value.

Assay [1] concerns the target Sigma intracellular receptor 2 (Homo sapiens, UniProt Q5BJF2). Description: GPCRScan assay: inhibition of Sigma 2. More on the design: radioligand conc. used [nm] 5.0, parental cells HEKT.
In assay [2] the target is 5-hydroxytryptamine receptor 2A (Homo sapiens, UniProt P28223). Description: GPCRScan assay: inhibition of 5-HT2A. More on the design: radioligand conc. used [nm] 1.2 – 2.4, parental cells HEKT.
5-hydroxytryptamine receptor 2A, sequence (P28223 whole entry): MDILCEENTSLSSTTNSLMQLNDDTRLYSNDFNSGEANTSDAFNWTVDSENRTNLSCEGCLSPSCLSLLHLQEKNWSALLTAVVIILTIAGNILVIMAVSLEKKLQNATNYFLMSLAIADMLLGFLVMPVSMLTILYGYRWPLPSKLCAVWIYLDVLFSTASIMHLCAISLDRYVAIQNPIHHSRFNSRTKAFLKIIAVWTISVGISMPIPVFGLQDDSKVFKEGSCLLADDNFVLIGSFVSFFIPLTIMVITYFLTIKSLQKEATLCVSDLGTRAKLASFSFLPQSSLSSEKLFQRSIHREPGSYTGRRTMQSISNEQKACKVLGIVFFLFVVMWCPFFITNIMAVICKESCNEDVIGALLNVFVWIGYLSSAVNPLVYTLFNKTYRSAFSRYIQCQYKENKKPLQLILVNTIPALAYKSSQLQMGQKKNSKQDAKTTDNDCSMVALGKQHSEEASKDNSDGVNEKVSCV
For assay [3], the target named is Tyrosine-protein kinase JAK1 (Homo sapiens) (UniProt P23458). The note with it: Compound concentration 1000.0 nM.
Assay [4] addresses Serine/threonine-protein kinase DCLK1 (Homo sapiens) (UniProt O15075). The note with it: Compound concentration 1000.0 nM.
The test system of assay [5] is Receptor-type tyrosine-protein kinase FLT3 (Homo sapiens), P36888 [N841I]. The note with it: Compound concentration 1000.0 nM.
Assay [6] has as its target Wee1-like protein kinase 2 (Homo sapiens) (UniProt P0C1S8). The note with it: Compound concentration 1000.0 nM.
The target of assay [7] is Serine/threonine-protein kinase PAK 3 (Homo sapiens) (UniProt O75914). The note with it: Compound concentration 1000.0 nM.
For assay [8], the target named is Bone morphogenetic protein receptor type-2 (Homo sapiens) (UniProt Q13873). The note with it: Compound concentration 1000.0 nM.
In assay [9] the test system is Mast/stem cell growth factor receptor Kit (Homo sapiens), P10721 [D816V]. The note with it: Compound concentration 1000.0 nM.
The target of assay [10] is Phosphatidylinositol 5-phosphate 4-kinase type-2 gamma (Homo sapiens) (UniProt Q8TBX8). The note with it: Compound concentration 1000.0 nM.
The target of assay [11] is Serine/threonine-protein kinase WNK1 (Homo sapiens) (UniProt Q9H4A3). The note with it: Compound concentration 1000.0 nM.
Serine/threonine-protein kinase WNK1 (Homo sapiens), sequence (Q9H4A3 whole entry, looked up): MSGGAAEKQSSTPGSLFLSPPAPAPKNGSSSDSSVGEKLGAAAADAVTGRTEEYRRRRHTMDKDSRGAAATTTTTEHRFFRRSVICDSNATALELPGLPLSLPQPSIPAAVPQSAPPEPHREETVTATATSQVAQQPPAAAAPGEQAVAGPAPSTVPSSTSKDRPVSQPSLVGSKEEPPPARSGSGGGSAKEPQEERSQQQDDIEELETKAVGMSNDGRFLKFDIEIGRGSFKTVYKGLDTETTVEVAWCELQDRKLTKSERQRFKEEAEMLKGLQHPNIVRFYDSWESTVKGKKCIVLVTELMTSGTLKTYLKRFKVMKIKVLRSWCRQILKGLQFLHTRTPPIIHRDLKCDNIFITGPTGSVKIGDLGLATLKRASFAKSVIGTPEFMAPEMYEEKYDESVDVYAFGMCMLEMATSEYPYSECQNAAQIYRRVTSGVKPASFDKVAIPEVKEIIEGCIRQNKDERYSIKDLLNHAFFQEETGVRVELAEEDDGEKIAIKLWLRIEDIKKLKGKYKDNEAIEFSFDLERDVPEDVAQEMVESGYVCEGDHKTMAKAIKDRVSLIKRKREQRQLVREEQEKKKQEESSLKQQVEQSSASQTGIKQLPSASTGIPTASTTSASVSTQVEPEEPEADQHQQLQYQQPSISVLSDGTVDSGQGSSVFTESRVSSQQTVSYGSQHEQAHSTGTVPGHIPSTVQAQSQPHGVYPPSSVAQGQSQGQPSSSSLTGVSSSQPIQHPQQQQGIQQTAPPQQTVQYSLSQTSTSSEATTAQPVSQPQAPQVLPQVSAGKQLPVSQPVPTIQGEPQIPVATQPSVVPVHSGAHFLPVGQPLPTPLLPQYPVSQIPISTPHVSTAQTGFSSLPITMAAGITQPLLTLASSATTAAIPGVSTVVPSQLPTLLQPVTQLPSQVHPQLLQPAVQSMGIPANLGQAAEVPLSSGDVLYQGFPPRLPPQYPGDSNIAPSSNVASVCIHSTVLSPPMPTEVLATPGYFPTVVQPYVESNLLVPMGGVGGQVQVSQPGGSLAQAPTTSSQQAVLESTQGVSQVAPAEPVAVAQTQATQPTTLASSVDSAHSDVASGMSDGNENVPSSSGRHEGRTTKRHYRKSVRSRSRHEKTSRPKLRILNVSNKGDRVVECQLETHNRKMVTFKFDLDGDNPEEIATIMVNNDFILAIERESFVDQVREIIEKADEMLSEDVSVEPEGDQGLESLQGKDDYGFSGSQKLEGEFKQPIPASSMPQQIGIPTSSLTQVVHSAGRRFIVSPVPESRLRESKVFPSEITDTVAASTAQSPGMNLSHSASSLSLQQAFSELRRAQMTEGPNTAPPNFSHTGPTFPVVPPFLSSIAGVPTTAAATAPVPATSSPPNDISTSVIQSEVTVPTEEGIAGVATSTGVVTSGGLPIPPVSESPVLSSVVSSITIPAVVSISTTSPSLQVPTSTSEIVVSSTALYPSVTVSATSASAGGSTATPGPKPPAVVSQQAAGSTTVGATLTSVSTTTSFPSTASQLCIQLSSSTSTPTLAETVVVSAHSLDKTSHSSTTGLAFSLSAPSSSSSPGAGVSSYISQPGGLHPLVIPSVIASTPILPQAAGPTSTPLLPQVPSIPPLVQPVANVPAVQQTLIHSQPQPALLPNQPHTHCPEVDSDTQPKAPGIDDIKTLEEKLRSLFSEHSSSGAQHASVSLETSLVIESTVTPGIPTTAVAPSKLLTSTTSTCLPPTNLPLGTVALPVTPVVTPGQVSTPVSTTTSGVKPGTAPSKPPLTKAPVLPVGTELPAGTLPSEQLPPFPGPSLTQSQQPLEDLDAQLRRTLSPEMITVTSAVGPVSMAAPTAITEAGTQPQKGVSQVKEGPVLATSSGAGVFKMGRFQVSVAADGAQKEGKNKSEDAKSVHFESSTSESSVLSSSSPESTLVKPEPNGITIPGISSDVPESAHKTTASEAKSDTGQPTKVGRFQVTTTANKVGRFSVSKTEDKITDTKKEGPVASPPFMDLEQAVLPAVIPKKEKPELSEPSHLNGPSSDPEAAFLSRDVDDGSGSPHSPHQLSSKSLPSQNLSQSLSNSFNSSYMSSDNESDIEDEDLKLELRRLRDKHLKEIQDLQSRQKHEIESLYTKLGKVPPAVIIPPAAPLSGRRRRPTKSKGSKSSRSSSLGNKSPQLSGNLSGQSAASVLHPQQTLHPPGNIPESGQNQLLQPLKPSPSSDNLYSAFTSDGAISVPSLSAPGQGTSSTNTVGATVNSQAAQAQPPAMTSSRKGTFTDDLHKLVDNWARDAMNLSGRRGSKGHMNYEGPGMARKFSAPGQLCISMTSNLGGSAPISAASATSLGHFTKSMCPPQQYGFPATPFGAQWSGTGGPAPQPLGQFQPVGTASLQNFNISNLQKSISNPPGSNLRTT
For assay [12], the target named is Ephrin type-A receptor 8 (Homo sapiens) (UniProt P29322). The note with it: Compound concentration 1000.0 nM.
Assay [13] deals with Calcium-dependent protein kinase 1 (Plasmodium falciparum) (UniProt P62344). The note with it: Compound concentration 1000.0 nM.
The target of assay [14] is Phosphatidylinositol 4,5-bisphosphate 3-kinase catalytic subunit alpha isoform (Homo sapiens) (UniProt P42336). The note with it: Compound concentration 1000.0 nM.
Phosphatidylinositol 4,5-bisphosphate 3-kinase catalytic subunit alpha isoform (Homo sapiens), sequence (P42336 whole entry, canonical isoform): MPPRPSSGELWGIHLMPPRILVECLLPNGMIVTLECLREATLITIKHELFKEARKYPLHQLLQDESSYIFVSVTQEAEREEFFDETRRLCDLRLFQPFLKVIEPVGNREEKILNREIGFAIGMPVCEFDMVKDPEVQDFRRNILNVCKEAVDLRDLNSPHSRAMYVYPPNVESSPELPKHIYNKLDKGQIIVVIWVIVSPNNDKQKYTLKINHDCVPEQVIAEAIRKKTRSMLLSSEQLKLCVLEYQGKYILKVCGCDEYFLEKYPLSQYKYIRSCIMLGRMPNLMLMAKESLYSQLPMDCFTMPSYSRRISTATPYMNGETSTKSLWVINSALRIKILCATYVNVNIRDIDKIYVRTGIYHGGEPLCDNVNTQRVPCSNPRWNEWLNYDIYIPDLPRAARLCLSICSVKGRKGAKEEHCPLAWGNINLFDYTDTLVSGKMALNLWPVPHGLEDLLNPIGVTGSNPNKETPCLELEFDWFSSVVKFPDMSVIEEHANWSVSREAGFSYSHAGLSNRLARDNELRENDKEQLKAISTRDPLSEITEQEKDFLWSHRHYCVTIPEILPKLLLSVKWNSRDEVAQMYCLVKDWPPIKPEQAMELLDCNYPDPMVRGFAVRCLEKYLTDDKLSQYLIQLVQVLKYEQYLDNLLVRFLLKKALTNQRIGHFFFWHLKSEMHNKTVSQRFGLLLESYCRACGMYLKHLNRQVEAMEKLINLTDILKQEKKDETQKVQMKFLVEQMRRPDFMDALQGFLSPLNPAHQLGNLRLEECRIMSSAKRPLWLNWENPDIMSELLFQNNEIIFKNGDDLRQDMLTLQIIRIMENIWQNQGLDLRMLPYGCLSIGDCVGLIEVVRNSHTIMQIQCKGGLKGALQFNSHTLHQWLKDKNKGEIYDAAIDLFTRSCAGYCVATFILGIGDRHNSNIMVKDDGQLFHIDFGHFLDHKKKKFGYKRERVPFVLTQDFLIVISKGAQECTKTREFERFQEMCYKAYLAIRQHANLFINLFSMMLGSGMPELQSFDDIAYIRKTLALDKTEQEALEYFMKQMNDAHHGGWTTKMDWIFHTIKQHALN
Assay [15] has as its target Misshapen-like kinase 1 (Homo sapiens) (UniProt Q8N4C8). The note with it: Compound concentration 1000.0 nM.
Assay [16] has as its target Dual specificity tyrosine-phosphorylation-regulated kinase 1B (Homo sapiens) (UniProt Q9Y463). The note with it: Compound concentration 1000.0 nM.
Assay [17] deals with Proto-oncogene tyrosine-protein kinase ROS (Homo sapiens) (UniProt P08922). The note with it: Compound concentration 1000.0 nM.
For assay [18], the target named is Serine/threonine-protein kinase D1 (Homo sapiens) (UniProt Q15139). The note with it: Compound concentration 1000.0 nM.
Assay [19] deals with Protein kinase C epsilon type (Homo sapiens) (UniProt Q02156). The note with it: Compound concentration 1000.0 nM.
Assay [20] deals with Serine/threonine-protein kinase RIO3 (Homo sapiens) (UniProt O14730). The note with it: Compound concentration 1000.0 nM.
Assay [21] has as its system Serine/threonine-protein kinase B-raf (Homo sapiens), P15056 [V600E]. The note with it: Compound concentration 1000.0 nM.
Assay [22] has as its target Serine/threonine-protein kinase 3 (Homo sapiens) (UniProt Q13188). The note with it: Compound concentration 1000.0 nM.
In assay [23] the target is Homeodomain-interacting protein kinase 3 (Homo sapiens) (UniProt Q9H422). The note with it: Compound concentration 1000.0 nM.
The target of assay [24] is Serine/threonine-protein kinase TNNI3K (Homo sapiens) (UniProt Q59H18). The note with it: Compound concentration 1000.0 nM.
Assay [25] concerns the target Serine/threonine-protein kinase PRP4 homolog (Homo sapiens) (UniProt Q13523). The note with it: Compound concentration 1000.0 nM.
The target of assay [26] is 5'-AMP-activated protein kinase catalytic subunit alpha-1 (Homo sapiens) (UniProt Q13131). The note with it: Compound concentration 1000.0 nM.
For assay [27], the target named is Ribosomal protein S6 kinase beta-1 (Homo sapiens) (UniProt P23443). The note with it: Compound concentration 1000.0 nM.
Assay [28] addresses Mitogen-activated protein kinase kinase kinase kinase 2 (Homo sapiens) (UniProt Q12851). The note with it: Compound concentration 1000.0 nM.
The target of assay [29] is Tyrosine-protein kinase Blk (Homo sapiens) (UniProt P51451). The note with it: Compound concentration 1000.0 nM.
The target in assay [30] is Serine/threonine-protein kinase RIO2 (Homo sapiens) (UniProt Q9BVS4). The note with it: Compound concentration 1000.0 nM.
Assay [31] concerns the target Dual specificity protein kinase CLK3 (Homo sapiens) (UniProt P49761). The note with it: Compound concentration 1000.0 nM.
In assay [32] the target is Serine/threonine-protein kinase Nek3 (Homo sapiens) (UniProt P51956). The note with it: Compound concentration 1000.0 nM.
The target of assay [33] is Phosphorylase b kinase regulatory subunit alpha, liver isoform (Homo sapiens) (UniProt P46019). The note with it: Compound concentration 1000.0 nM.
The target in assay [34] is NT-3 growth factor receptor (Homo sapiens) (UniProt Q16288). The note with it: Compound concentration 1000.0 nM.
Assay [35] deals with Serine/threonine-protein kinase 25 (Homo sapiens) (UniProt O00506). The note with it: Compound concentration 1000.0 nM.
Serine/threonine-protein kinase 25 (Homo sapiens), sequence (O00506 whole entry, looked up): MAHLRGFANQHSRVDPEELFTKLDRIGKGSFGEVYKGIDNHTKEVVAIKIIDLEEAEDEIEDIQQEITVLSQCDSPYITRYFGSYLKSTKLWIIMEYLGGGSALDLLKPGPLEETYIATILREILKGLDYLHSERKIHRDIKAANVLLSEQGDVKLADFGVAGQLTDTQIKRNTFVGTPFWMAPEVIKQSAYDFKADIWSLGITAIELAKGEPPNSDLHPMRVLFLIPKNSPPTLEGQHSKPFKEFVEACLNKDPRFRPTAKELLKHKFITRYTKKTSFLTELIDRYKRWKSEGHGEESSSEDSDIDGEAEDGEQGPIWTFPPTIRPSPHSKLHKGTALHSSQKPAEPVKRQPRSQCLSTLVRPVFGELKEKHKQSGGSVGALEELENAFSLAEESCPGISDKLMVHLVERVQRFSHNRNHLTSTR
The target of assay [36] is Tyrosine-protein kinase CSK (Homo sapiens) (UniProt P41240). The note with it: Compound concentration 1000.0 nM.
Tyrosine-protein kinase CSK (Homo sapiens), sequence (P41240 2-450 limits assumed): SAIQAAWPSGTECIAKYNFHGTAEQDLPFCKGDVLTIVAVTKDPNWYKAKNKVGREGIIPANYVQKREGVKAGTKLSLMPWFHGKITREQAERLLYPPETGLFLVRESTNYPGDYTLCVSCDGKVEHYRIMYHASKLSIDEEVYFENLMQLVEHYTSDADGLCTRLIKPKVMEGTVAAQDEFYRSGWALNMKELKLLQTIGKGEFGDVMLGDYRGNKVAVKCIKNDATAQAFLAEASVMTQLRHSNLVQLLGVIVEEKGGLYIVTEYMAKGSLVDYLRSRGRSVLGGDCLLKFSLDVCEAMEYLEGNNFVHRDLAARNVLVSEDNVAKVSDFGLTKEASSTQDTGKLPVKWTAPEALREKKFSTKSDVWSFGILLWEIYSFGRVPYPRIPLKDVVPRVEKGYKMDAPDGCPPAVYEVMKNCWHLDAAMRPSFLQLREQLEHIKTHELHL
Assay [37] addresses Ribosomal protein S6 kinase alpha-5 (Homo sapiens) (UniProt O75582). The note with it: Compound concentration 1000.0 nM.
For assay [38], the target named is Atypical kinase COQ8B, mitochondrial (Homo sapiens) (UniProt Q96D53). The note with it: Compound concentration 1000.0 nM.
Assay [39] has as its system ALK tyrosine kinase receptor (Homo sapiens), Q9UM73 [L1196M]. The note with it: Compound concentration 1000.0 nM.
Assay [40] deals with Tyrosine-protein kinase Yes (Homo sapiens) (UniProt P07947). The note with it: Compound concentration 1000.0 nM.
The target in assay [41] is Fibroblast growth factor receptor 1 (Homo sapiens) (UniProt P11362). The note with it: Compound concentration 1000.0 nM.
Assay [42] deals with Tyrosine-protein kinase ABL1 (Homo sapiens), P00519 [H396P]. The note with it: Compound concentration 1000.0 nM.
In assay [43] the target is Death-associated protein kinase 3 (Homo sapiens) (UniProt O43293). The note with it: Compound concentration 1000.0 nM.
Assay [44] has as its target Serine/threonine-protein kinase D3 (Homo sapiens) (UniProt O94806). The note with it: Compound concentration 1000.0 nM.
Assay [45] deals with Ephrin type-A receptor 6 (Homo sapiens) (UniProt Q9UF33). The note with it: Compound concentration 1000.0 nM.

Sigma intracellular receptor 2, sequence (Q5BJF2 whole entry): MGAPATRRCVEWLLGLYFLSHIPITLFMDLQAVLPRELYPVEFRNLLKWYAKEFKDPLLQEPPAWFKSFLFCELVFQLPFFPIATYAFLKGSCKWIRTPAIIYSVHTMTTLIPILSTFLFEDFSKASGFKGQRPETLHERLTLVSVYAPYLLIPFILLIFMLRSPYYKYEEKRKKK

For orientation: pKi means the Ki on a negative log10 scale, so that one unit is a factor of ten. Consider `CC(C)(C)OC(=O)N1CCCC1CNC1CCC(c2cc(F)ccc2F)(S(=O)(=O)c2ccc(Cl)cc2)CC1` (stereo not given) [GSI-NC], for which the results for the pKi in assay [1] and in assay [2] were 6.02 and 6.32, respectively.
As to `O=S(=O)(NC1CCC(c2cc(F)ccc2F)(S(=O)(=O)c2ccc(Cl)cc2)CC1)C(F)(F)F` (stereo not given) [MRK-560], the residual activity in assay [3] was 70%; in assay [4], 100%; in assay [5] it was 100%; in [6] it was 100%; in assay [7], 100%; in assay [8], 100%. For the same compound, the residual activity is 92% in assay [9]; 100% in assay [10]; 100% in assay [11]; 100% in [12]; 100% in assay [13]; 100% in [14]. Besides, the residual activity in [15] was 100%; in assay [16] it was 100%; in assay [17], 100%; in [18], 100%; in assay [19], 52%; in [20] it was 83%. Also, the residual activity in assay [21] was 86%; in assay [22], 100%; in assay [23] it was 100%; in [24] it was 100%; in assay [25], 100%; in assay [26], 100%. Besides, the residual activity in assay [27] is 100%; in assay [28], 100%; in assay [29] it was 89%; in assay [30], 82%; in assay [31], 86%; in assay [32], 81%. Besides, the residual activity in assay [33] is 91%; in assay [34], 91%; in assay [35], 100%; in assay [36] it was 100%; in assay [37], 71%; in assay [38] it was 88%. The residual activity was 94% in assay [39]; 89% in assay [40]; 100% in [41]; 100% in assay [42]; 97% in [43]; 100% in [44]. For the same compound, the residual activity in assay [45] was 100%.
